# According to patent US10150793B2, “Antagonists of CB1 receptor” (INSERM (Institut National de la Santé et de la Recherche …, priority 2011, dated 2018):
# Target: CB1 receptor (Mus musculus, UniProt P47746)
# Test: THC-induced cannabinoid tetrad (body temperature, locomotor activity, catalepsy, analgesia)
# Format: in vivo, mice
# Set-up: tissue Charles River Laboratories (France) (animals); host or cells: living mice, whole animal
# Details: AMG 50 mg/kg ip 30 min before THC
# CB1 receptor, sequence (P47746 whole entry): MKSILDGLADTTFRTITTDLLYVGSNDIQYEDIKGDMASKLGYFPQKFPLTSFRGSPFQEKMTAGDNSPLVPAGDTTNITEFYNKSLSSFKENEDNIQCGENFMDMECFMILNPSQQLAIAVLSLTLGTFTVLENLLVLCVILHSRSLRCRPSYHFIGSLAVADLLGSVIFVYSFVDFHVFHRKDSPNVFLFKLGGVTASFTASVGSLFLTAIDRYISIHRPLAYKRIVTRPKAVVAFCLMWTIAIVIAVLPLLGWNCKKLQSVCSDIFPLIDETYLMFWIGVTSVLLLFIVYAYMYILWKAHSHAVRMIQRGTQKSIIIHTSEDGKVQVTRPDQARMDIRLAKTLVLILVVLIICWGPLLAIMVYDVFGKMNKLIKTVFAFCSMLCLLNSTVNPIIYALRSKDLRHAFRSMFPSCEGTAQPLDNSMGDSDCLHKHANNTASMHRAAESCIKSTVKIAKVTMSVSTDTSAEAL
row,Compound,effect on behavioural effects of THC (tetrad)
1,"CCC1(c2ccc(N)cc2)CCC(=O)NC1=O (centres unmarked) [AMG, aminoglutethimide, reference compound]",strongly increased all the behavioural effect of THC

# Same assay, conditions: mice; THC 10 mg/kg; compounds 6 mg/kg 15-30 min before THC
Compound,% Inhibition temperature decrease,% increase in motor activity
"CC[C@H]1CCC2C3CC=C4C[C@@H](O)CC[C@]4(C)C3CC[C@@]21C (some centres unmarked) [Compound 24, 20-Deoxypregnenolone]","25%, P < 0.08","33%, P > 0.20"
"CNC(C)[C@H]1CC[C@H]2[C@@H]3CC=C4C[C@@H](O)CC[C@]4(C)[C@H]3CC[C@]12C (stereo partly drawn) [Compound 67, 20-Methylamino-5-pregnen-3β-ol]","28%, P < 0.05","−20%, P > 0.35"
"C=CC[C@]1(C(C)=O)CCC2C3CC=C4C[C@@H](OC)CC[C@]4(C)C3CC[C@@]21C (stereo partly drawn) [Compound 69, 17α-Allyl-3β-methoxypregnenolone]","4%, P > 0.39","−49%, P > 0.1"
"CO[C@H]1CC[C@@]2(C)C(=CCC3C2CC[C@@]2(C)C3CC[C@]2(Cc2ccccc2)C(C)=O)C1 (stereo partly drawn) [Compound 70, 17α-benzyl-3β-methoxypregnenolone]","8%, P > 0.49","2%, P > 0.48"

# Tested on: CHO cells
# Test: Study of metabolism in vitro in CHO cells, steroids in culture medium by GC/MS
# Details: CHO cells
# Experimental: Plasma, brain and culture medium levels of pregnenolone (5-Pregnen-3β-ol-20-one), allopregnanolone (3α-hydroxy-5α-pregnan-20-one), epiallopregnanolone (3β-hydroxy-5α-pregnan-ol-20-one), testosterone, and 5α dihydrotestosterone were determined by GC/MS according to the of estraction, purification and quantification protocol described previously (George O, et al., Biol Psychiatry. 2010 68: 956-63, Vallee M, et al., Anal Biochem. 2000, 287:153-66).
# The CHO-K1 cell line (#CCL-61, ATCC-LGC, USA) derived as a subclone from the parental CHO cell line initiated from a biopsy of an adult Chinese hamster ovary was used. The CHO-K1 cells were seeded on 24-well plates (#353047, BD Biosciences, USA) to the appropriate concentration (25×10^4 cells/well) in fresh, antibiotic-free medium constituted by 90% DMEM-Glutamax; (#31966-21, Life technologies, USA) and 10% Fetal Bovine Serum (#10270-106, Life technologies, USA).
# In this example the inventors further analyzed the metabolism of pregnenolone derivatives using an in vitro test in CHO cells. These cells derived from the ovary have all the enzymes needed to metabolize pregnenolone in down stream steroids.
row,Compound,metabolism in downstream active steroids (Reduced metabolism / Metabolized)
1,"CCC1=CC[C@H]2[C@@H]3CC=C4C[C@@H](O)CC[C@]4(C)[C@H]3CC[C@]12C [Compound 6, 5,16-Pregnadien-3β-ol]",Metabolized
2,"CC(=O)C1=CCC2C3CC=C4C[C@@H](O)CC[C@]4(C)C3CC[C@]12C (stereo partly drawn) [Compound 7, 5,16-Pregnadien-3β-ol-20-one]",Metabolized
3,"C[C@@H](O)[C@H]1CCC2C3CC[C@H]4C[C@@H](O)CC[C@]4(C)C3CC[C@@]21C (stereo partly drawn) [Compound 8, 5α-Pregnan-3β,20α-diol]",Metabolized
4,"CC(=O)C1CCC2C3CC[C@H]4C[C@@H](OC(=O)CCC(=O)O)CC[C@]4(C)C3CC[C@]12C (stereo partly drawn) [Compound 10, 5α-Pregnan-3α-ol-20-one hemisuccinate (Allopregnanolone hemisuccinate)]",Metabolized
5,"CC(=O)[C@H]1CCC2C3CC[C@H]4C[C@@H](O)CC[C@]4(C)C3CC[C@@]21C (stereo partly drawn) [Compound 11, 5α-Pregnan-3β-ol-20-one (Epiallopregnanolone)]",Metabolized
6,"C[C@@H](O)[C@H]1CCC2C3CCC4=C[C@@H](O)CC[C@]4(C)C3CC[C@@]21C (stereo partly drawn) [Compound 13, 4-Pregnen-3β,20β-diol]",Metabolized
7,"C[C@@H](O)[C@@]1(O)CCC2C3CCC4=CC(=O)CC[C@]4(C)C3CC[C@@]21C (stereo partly drawn) [Compound 15, 4-Pregnen-17α,20β-diol-3-one]",Metabolized
8,"CC(=O)[C@H]1CCC2C3CCC4=C[C@@H](O)CC[C@]4(C)C3CC[C@@]21C (stereo partly drawn) [Compound 17, 4-Pregnen-3β-ol-20-one]",Metabolized
9,"C[C@@H](O)[C@H]1CCC2C3CCC4=CC(=O)CC[C@]4(C)C3CC[C@@]21C (stereo partly drawn) [Compound 19, 4-Pregnen-20β-ol-3-one]",Metabolized
10,"C[C@@H](O)[C@H]1CCC2C3CC=C4C[C@@H](O)CC[C@]4(C)C3CC[C@@]21C (stereo partly drawn) [Compound 21, 5-Pregnen-3β,20β-diol]",Metabolized
11,"CC(=O)[C@]1(O)CCC2C3CC=C4C[C@@H](O)CC[C@]4(C)C3CC[C@@]21C (stereo partly drawn) [Compound 22, 17α-Hydroxypregnenolone]",Metabolized
12,"CC(=O)[C@]1(O)CCC2C3CC=C4C[C@@H](OC(=O)CCC(=O)O)CC[C@]4(C)C3CC[C@@]21C (stereo partly drawn) [Compound 23, 17α-Hydroxypregnenolone hemisuccinate]",Metabolized
13,"CC[C@H]1CCC2C3CC=C4C[C@@H](O)CC[C@]4(C)C3CC[C@@]21C (some centres unmarked) [Compound 24, 20-Deoxypregnenolone]",Reduced metabolism
14,"C[C@]12CC[C@H](O)CC1=CCC1C2CC[C@@]2(C)C1CC[C@@H]2C(=O)CO (stereo partly drawn) [Compound 26, 5-Pregnen-3β,21-diol-20-one]",Metabolized
15,"CO[C@H]1CC[C@@]2(C)C(=CCC3C2CC[C@@]2(C)C3CC[C@@H]2C(C)=O)C1 (stereo partly drawn) [Compound 33, 3β-Methoxypregnenolone]",Metabolized
16,"CCO[C@H]1CC[C@@]2(C)C(=CCC3C2CC[C@@]2(C)C3CC[C@@H]2C(C)=O)C1 (stereo partly drawn) [Compound 34, 3β-Ethoxypregnenolone]",Metabolized
17,"CC(=O)[C@H]1CCC2C3CC=C4CCCC[C@]4(C)C3CC[C@@]21C (some centres unmarked) [Compound 37, 3-Dehydroxypregnenolone]",Metabolized

row,Compound,metabolism in downstream active steroids (Reduced metabolism / Metabolized)
1,"CC(O)C1=CC[C@H]2[C@@H]3CC=C4C[C@@H](O)CC[C@]4(C)[C@H]3CC[C@]12C (stereo partly drawn) [Compound 38, 5,16-Pregnadien-3β,20-diol]",Metabolized
2,"CC(=O)[C@@]1(C)CCC2C3CC=C4C[C@@H](OCc5ccccc5)CC[C@]4(C)C3CC[C@@]21C (stereo partly drawn) [Compound 42, 3β-Benzyloxy-17α-methylpregnenolone]",Reduced metabolism
3,"C[C@]12CC[C@H](O)CC1=CCC1C2CC[C@]2(C)C(=O)CCC12 (stereo partly drawn) [Compound 50, 5-Androsten-3β-ol-17-one (DHEA), reference compound]",Metabolized
4,"C[C@]12CC[C@H]3[C@@H](CCC4=CC(=O)CC[C@@]43C)[C@@H]1CC[C@@H]2C(=O)CO [Compound 52, 4-Pregnen-21-ol-3,20-dione]",Metabolized
5,"CC(=O)[C@H]1CC[C@H]2[C@@H]3CC=C4C[C@@H](OS(=O)(=O)[O-])CC[C@]4(C)[C@H]3CC[C@]12C.[Na+] [Compound 53, Pregnenolone sulfate sodium]",Metabolized
6,"CC(=O)O[C@H]1CC[C@@]2(C)C(=CCC3C2CC[C@@]2(C)C3CC[C@@H]2C(C)=O)C1 (stereo partly drawn) [Compound 55, 3β-Acetoxypregnenolone]",Metabolized
7,"CC(=O)[C@@]1(Cc2ccccc2)CCC2C3CC=C4C[C@@H](OCc5ccccc5)CC[C@]4(C)C3CC[C@@]21C (stereo partly drawn) [Compound 63, 17α-Benzyl-3β-benzyloxypregnenolone]",Reduced metabolism
8,"C=CC[C@]1(C(C)=O)CCC2C3CC=C4C[C@@H](O)CC[C@]4(C)C3CC[C@@]21C (stereo partly drawn) [Compound 64, 17α-Allylpregnenolone]",Metabolized
9,"CC(=O)C1CCC2C3CC=C4C[C@@H](N)CC[C@]4(C)C3CC[C@]12C (stereo partly drawn) [Compound 66, 3β-Aminopregnenolone]",Metabolized
10,"CNC(C)[C@H]1CC[C@H]2[C@@H]3CC=C4C[C@@H](O)CC[C@]4(C)[C@H]3CC[C@]12C (stereo partly drawn) [Compound 67, 20-Methylamino-5-pregnen-3β-ol]",Reduced metabolism
11,"C=CC[C@]1(C(C)=O)CCC2C3CC=C4C[C@@H](OC)CC[C@]4(C)C3CC[C@@]21C (stereo partly drawn) [Compound 69, 17α-Allyl-3β-methoxypregnenolone]",Reduced metabolism
12,"CO[C@H]1CC[C@@]2(C)C(=CCC3C2CC[C@@]2(C)C3CC[C@]2(Cc2ccccc2)C(C)=O)C1 (stereo partly drawn) [Compound 70, 17α-benzyl-3β-methoxypregnenolone]",Reduced metabolism
13,"CCOC1(C(C)=O)CCC2C3CC=C4C[C@@H](O)CC[C@]4(C)C3CC[C@@]21C (some centres unmarked) [Compound 71, 17-Ethoxypregnenolone]",Metabolized
14,"CC(=O)[C@@]1(Cc2ccccc2)CCC2C3CCC4=CC(=O)CC[C@]4(C)C3CC[C@@]21C (stereo partly drawn) [Compound 73, 17α-Benzylprogesterone]",Reduced metabolism
15,"CC(=O)[C@@]1(Cc2ccccc2)CCC2C3CC=C4C[C@@H](F)CC[C@]4(C)C3CC[C@@]21C (stereo partly drawn) [Compound 74, 17α-Benzyl-3β-fluoropregnenolone]",Reduced metabolism
16,"C[C@]12CCC3C(CC[C@@H]4C[C@@H](O)CC[C@]34C)C1CC[C@@H]2C(=O)CO (stereo partly drawn) [Compound 75, 5α-Pregnan-3α,21-diol-20-one]",Metabolized
17,"C[C@]12CCC3C(CC[C@H]4C[C@@H](O)CC[C@]34C)C1CC[C@@H]2C(=O)CO (stereo partly drawn) [Compound 76, 5α-Pregnan 3β,21-diol-20-one]",Metabolized

# Tested on: TNF-α
# Test: Increase in plasma TNF-alpha induced by LPS
# Format: in vivo, mice
# Details: Mus musculus; mice; compounds 6 mg/kg 15 min before LPS
# Experimental: Trunk blood was collected and centrifuged at 3000 rpm for 15 min at 4° C. Plasma was stored at −80° C. until measurement of TNFα was carried out. Plasma TNFα levels were assessed using an ELISA kit, following the manufacturer's instructions (Fisher Scientific, Catalog #E6473C).
# In this example the inventors further analyzed the ability of pregnenolone to inhibit the effects of CB1 activation in the context of inflammation and fibrosis. […] TNF-alpha is one of the cellular responses to inflammatory stimuli more involved in promoting fibrosis.
# Other pregnenolone derivatives (Table 4) for which the metabolism in downstream active steroids was reduced were tested for their ability to inhibit: 1. effects of the THC-induced cannabinoid tetrade (decrease in body temperature and in locomotor activity, (THC 10 mg/kg, compounds 6 mg/kg 15-30 min before THC) that is recognized as a sound method to evaluate the activation of the CB1 receptor; 2. THC-induced increase in food intake a typical effect of CB1 activation (THC between 0.5 and 1 mg/kg, compounds between 2 and 4 mg/kg 30 min before THC); 3. the increase in TNFalpha induced by LPS, another effects typical of CB1 […] (compounds 6 mg/kg 15 min before LPS). For each compound and each test independent groups of animals were used (at least n=6 per compound/per test).
row,Compound,inhibition in vivo at 6 mg/kg [%]
1,"CC[C@H]1CCC2C3CC=C4C[C@@H](O)CC[C@]4(C)C3CC[C@@]21C (some centres unmarked) [Compound 24, 20-Deoxypregnenolone]",34
